According to patent publication US7642245B2, “Antibacterial compounds having a (pyrrole carboxamide)-(benzamide)-(imidazole carboxamide) motif” (Oscient Pharmaceuticals Corporation, priority 2002, dated 2010):

How the values were obtained:
S. aureus ATCC 13709 = assay: MIC, NCCLS broth microdilution; type: cell-based, Staphylococcus aureus; conditions: A = S. aureus ATCC 13709 (MSSA)
Source text: (§1) In vitro biological activity data were collected for a variety of microorganisms, including Staphylococcus aureus (ATCC 27660, a methicillin resistant strain (MRSA); ATCC 13709, a methicillin sensitive strain (MSSA)), Enterococcus faecalis (ATCC 29212), Bacillus cereus (ATCC 11778), Streptococcus pneumoniae (ATCC 49619), Candida albicans (ATCC 38247), Escherichia coli (ATCC 25922), and Moraxella (now Branhamella) catarrhalis (ATCC 25238).
(§2) The minimal inhibition concentration (MIC) of these compounds was determined using the National Committee for Clinical Laboratory Standards (NCCLS) broth microdilution assay in microtiter plates, as set forth in: (1) the guidelines of the National Committee for Clinical Laboratory Standards (NCCLS) Document M7-A4 (NCCLS, 1997); (2) the guidelines of the National Committee for Clinical Laboratory Standards (NCCLS) Document M11-A4 (NCCLS, 1997); and (3) the guidelines and reference method of the National Committee for Clinical Laboratory Standards (NCCLS) Document M27-T (NCCLS, 1995). For antifungal assays, the method recommended in Murray, P R., 1995 Manual of Clinical Microbiology (ASM Press, Washington, DC.), was employed.

S. aureus ATCC 27660 = assay: MIC, NCCLS broth microdilution; type: cell-based, Staphylococcus aureus; conditions: B = S. aureus ATCC 27660 (MRSA)
Source text: as §1, §2

E. faecalis ATCC 29212 = assay: MIC, NCCLS broth microdilution; type: cell-based, Enterococcus faecalis; conditions: C = E. faecalis ATCC 29212
Source text: as §1, §2

B. cereus ATCC 11778 = assay: MIC, NCCLS broth microdilution; type: cell-based, Bacillus cereus; conditions: D = B. cereus ATCC 11778
Source text: as §1, §2

S. pneumoniae ATCC 49619 = assay: MIC, NCCLS broth microdilution; type: cell-based, Streptococcus pneumoniae; conditions: E = S. pneumoniae ATCC 49619
Source text: as §1, §2

C. albicans ATCC 38247 = assay: MIC, antifungal assay; type: cell-based, Candida albicans; conditions: F = C. albicans ATCC 38247
Source text: as §1, §2

E. coli ATCC 25922 = assay: MIC, NCCLS broth microdilution; type: cell-based, Escherichia coli; conditions: G = E. coli ATCC 25922
Source text: as §1, §2

[1] = tested on: M. catarrhalis (ATCC 25238); assay: MIC, NCCLS broth microdilution; type: cell-based, Moraxella (now Branhamella) catarrhalis; conditions: H = M. catarrhalis (ATCC 25238)
Source text: as §1, §2

Row | SMILES | Minimum Inhibitory Concentration (MIC) (S. aureus ATCC 13709) | Minimum Inhibitory Concentration (MIC) (S. aureus ATCC 27660) | Minimum Inhibitory Concentration (MIC) (E. faecalis ATCC 29212) | Minimum Inhibitory Concentration (MIC) (B. cereus ATCC 11778) | Minimum Inhibitory Concentration (MIC) (S. pneumoniae ATCC 49619) | Minimum Inhibitory Concentration (MIC) (C. albicans ATCC 38247) | Minimum Inhibitory Concentration (MIC) (E. coli ATCC 25922) | Minimum Inhibitory Concentration (MIC) [1]
1 | Cn1cc(NC(=O)c2cc3ccccc3cn2)cc1C(=O)Nc1ccc(C(=O)Nc2cn(C)c(C(=O)NCCN3CCCC(O)C3)n2)cc1 (racemic) [Compound A-69] | +++ (MIC ≦ 4 μg/mL) | +++ (MIC ≦ 4 μg/mL) | +++ (MIC ≦ 4 μg/mL) | +++ (MIC ≦ 4 μg/mL) | +++ (MIC ≦ 4 μg/mL) | >32 µg/mL | >32 µg/mL | +++ (MIC ≦ 4 μg/mL)
2 | Cn1cc(NC(=O)c2cc3ccccc3cn2)cc1C(=O)Nc1ccc(C(=O)Nc2cn(C)c(C(=O)NCCN3CCC(O)C3)n2)cc1 (racemic) [Compound A-71] | +++ (MIC ≦ 4 μg/mL) | +++ (MIC ≦ 4 μg/mL) | +++ (MIC ≦ 4 μg/mL) | +++ (MIC ≦ 4 μg/mL) | +++ (MIC ≦ 4 μg/mL) | >32 µg/mL | +++ (MIC ≦ 4 μg/mL) | +++ (MIC ≦ 4 μg/mL)
3 | Cn1cc(NC(=O)c2sccc2Cl)cc1C(=O)Nc1ccc(C(=O)Nc2cn(C)c(C(=O)NCCN3CCC(O)CC3)n2)cc1 [Compound A-1] | +++ (MIC ≦ 4 μg/mL) | +++ (MIC ≦ 4 μg/mL) | +++ (MIC ≦ 4 μg/mL) | +++ (MIC ≦ 4 μg/mL) | +++ (MIC ≦ 4 μg/mL) | >32 µg/mL | >32 µg/mL | + (12 ≦ MIC ≦ 32 μg/mL)
4 | Cn1cc(NC(=O)c2cccc(F)n2)cc1C(=O)Nc1ccc(C(=O)Nc2cn(C)c(C(=O)NCCN3CCC(O)CC3)n2)cc1 [Compound A-2] | +++ (MIC ≦ 4 μg/mL) | +++ (MIC ≦ 4 μg/mL) | +++ (MIC ≦ 4 μg/mL) | +++ (MIC ≦ 4 μg/mL) | +++ (MIC ≦ 4 μg/mL) | >32 µg/mL | >32 µg/mL | + (12 ≦ MIC ≦ 32 μg/mL)
5 | Cn1cc(NC(=O)c2sc3ccccc3c2Cl)cc1C(=O)Nc1ccc(C(=O)Nc2cn(C)c(C(=O)NCCN3CCC(O)CC3)n2)cc1 [Compound A-3] | +++ (MIC ≦ 4 μg/mL) | +++ (MIC ≦ 4 μg/mL) | +++ (MIC ≦ 4 μg/mL) | +++ (MIC ≦ 4 μg/mL) | +++ (MIC ≦ 4 μg/mL) | >32 µg/mL | >32 µg/mL | ++ (4 < MIC < 12 μg/mL)
6 | Cn1cc(NC(=O)c2ccc(Cl)cc2F)cc1C(=O)Nc1ccc(C(=O)Nc2cn(C)c(C(=O)NCCN3CCC(O)CC3)n2)cc1 [Compound A-4] | +++ (MIC ≦ 4 μg/mL) | +++ (MIC ≦ 4 μg/mL) | +++ (MIC ≦ 4 μg/mL) | +++ (MIC ≦ 4 μg/mL) | +++ (MIC ≦ 4 μg/mL) | + (12 ≦ MIC ≦ 32 μg/mL) | ++ (4 < MIC < 12 μg/mL) | +++ (MIC ≦ 4 μg/mL)
